Legend:
Format in all cases: in vivo
Settings in all cases: 100 = 100% disease control, 0 = no control
Alternaria solani = assay: Test F: tomato early blight, preventive spray on tomato seedlings
Source text: (§1) General protocol for preparing test suspensions for Tests A-F: the test compounds were first dissolved in acetone in an amount equal to 3% of the final volume and then suspended at the desired concentration (in ppm) in acetone and purified water (50/50 mix by volume) containing 250 ppm of the surfactant PEG400 (polyhydric alcohol esters). The resulting test suspensions were then used in Tests A-F.
(§2) The test suspension was sprayed to the point of run-off on tomato seedlings. The following day the seedlings were inoculated with a spore suspension of Alternaria solani (the causal agent of tomato early blight) and incubated in a saturated atmosphere at 27° C. for 48 h, and then moved to a growth chamber at 20° C. for 3 days, after which time visual disease ratings were made.
(§3) A rating of 100 indicates 100% disease control and a rating of 0 indicates no disease control (relative to the controls). A dash (-) indicates the compound was not tested.

Botrytis cinerea = assay: Test E: tomato Botrytis, preventive spray on tomato seedlings
Source text: as §1
as §2, with “Botrytis cinerea” for “Alternaria solani”, “Botrytis)” for “early blight)”, “20°” for “27°”, “24°” for “20°”
as §3

[1] = system: Puccinia recondita f. sp. tritici; assay: Test B: wheat leaf rust, preventive spray on wheat seedlings
Source text: as §1
(§4) The test solution was sprayed to the point of run-off on wheat seedlings. The following day the seedlings were inoculated with a spore suspension of Puccinia recondita f. sp. tritici (the causal agent of wheat leaf rust) and incubated in a saturated atmosphere at 20° C. for 24 h, and then moved to a growth chamber at 20° C. for 7 days, after which time visual disease ratings were made.
as §3

[2] = system: Blumeria graminis f. sp. tritici; assay: Test C: wheat powdery mildew, preventive spray on wheat seedlings
Source text: as §1
The test suspension was sprayed to the point of run-off on wheat seedlings. The following day the seedlings were inoculated with a spore dust of Blumeria graminis f. sp. tritici, (also known as Eysiphe graminis f. sp. tritici, the causal agent of wheat powdery mildew) and incubated in a growth chamber at 20° C. for 8 days, after which time visual disease ratings were made.
as §3

Phakopsora pachyrhizi = assay: Test D: Asian soybean rust, preventive spray on soybean seedlings
Source text: as §1
as §4, with “soybean” for “wheat”, “Phakopsora pachyrhizi” for “Puccinia recondita f. sp. tritici”, “Asian soybean” for “wheat leaf”, “22°” for “20°”, “h” for “h,”, “8” for “7”
as §3

Zymoseptoria tritici = assay: Test A: wheat leaf blotch, preventive spray on wheat seedlings
Source text: as §1
The test solution was sprayed to the point of run-off on wheat seedlings. The following day the seedlings were inoculated with a spore suspension of Zymoseptoria tritici (the causal agent of wheat leaf blotch) and incubated in a saturated atmosphere at 24° C. for 48 h, and then moved to a growth chamber at 20° C. for 17 days, after which time disease ratings were made.
as §3

[3] = Alternaria solani, 50 ppm, read-out: Test F disease control rating
[4] = Botrytis cinerea, 50 ppm, read-out: Test E disease control rating
[5] = Puccinia recondita, 50 ppm, read-out: Test B disease control rating
[6] = Blumeria graminis, 50 ppm, read-out: Test C disease control rating
[7] = Phakopsora pachyrhizi, 216 h, 50 ppm, read-out: Test D disease control rating
[8] = Zymoseptoria tritici, 50 ppm, read-out: Test A disease control rating

SMILES | Test F disease control rating (Alternaria solani; 50 ppm) [%] | Test E disease control rating (Botrytis cinerea; 50 ppm) [%] | Test B disease control rating ([1]; 50 ppm) [%] | Test C disease control rating ([2]; 50 ppm) [%] | Test D disease control rating (Phakopsora pachyrhizi; 50 ppm) [%] | Test A disease control rating (Zymoseptoria tritici; 50 ppm) [%] | other results
Cn1cc(-c2cc(F)ccc2Cl)c(-c2ccc(F)cc2Cl)c(Cl)c1=O [Compound 1] | 46 | 98 | 100 | 0 | 0 | 100 | 
Cn1cc(-c2cc(F)ccc2Cl)c(-c2ccc(F)cc2Cl)c(I)c1=O [Compound 2] | 33 | 91 | 98 | 0 | 0 | 100 | 
COc1cc(OC)cc(-c2cn(C)c(=O)c(Cl)c2-c2ccc(F)cc2Cl)c1 [Compound 3, 3-chloro-4-(2-chloro-4-fluorophenyl)-5-(3,5-dimethoxyphenyl)-1-methyl-2(11)-pyridinone] | 100 | 100 | 100 | 0 | 65 | 99 | 
COc1cc(OC)c(Cl)c(-c2cn(C)c(=O)c(Cl)c2-c2ccc(F)cc2Cl)c1 [Compound 4, 3-chloro-5-(2-chloro-3,5-dimethoxyphenyl)-4-(2-chloro-4-fluorophenyl)-1-methyl-2(1H)-pyridinone] |  |  |  |  |  |  | pest or weed control at 50 ppm (Alternaria solani; [3]): 100%; pest or weed control at 50 ppm (Botrytis cinerea; [4]): 100%; pest or weed control at 50 ppm [1, 5]: 100%; pest or weed control at 50 ppm [2, 6]: 98%; pest or weed control at 50 ppm (Phakopsora pachyrhizi; [7]): 99%; pest or weed control at 50 ppm (Zymoseptoria tritici; [8]): 100%
COc1cc(-c2cn(C)c(=O)c(Cl)c2-c2ccc(F)cc2Cl)cc(OC)c1Cl [Compound 5, 3-chloro-5-(4-chloro-3,5-dimethoxyphenyl)-4-(2-chloro-4-fluorophenyl)-1-methyl-2(1H)-pyridinone] |  |  |  |  |  |  | pest or weed control at 250 ppm (Alternaria solani; Alternaria solani, 250 ppm, read-out: Test F disease control rating): 99%; pest or weed control at 250 ppm (Botrytis cinerea; Botrytis cinerea, 250 ppm, read-out: Test E disease control rating): 98%; pest or weed control at 250 ppm ([1]; Puccinia recondita, 250 ppm, read-out: Test B disease control rating): 100%; pest or weed control at 250 ppm ([2]; Blumeria graminis, 250 ppm, read-out: Test C disease control rating): 0%; pest or weed control at 250 ppm (Phakopsora pachyrhizi; Phakopsora pachyrhizi, 216 h, 250 ppm, read-out: Test D disease control rating): 78%; pest or weed control at 250 ppm (Zymoseptoria tritici; Zymoseptoria tritici, 250 ppm, read-out: Test A disease control rating): 100%
COc1cccc(-c2c(-c3ccc(F)cc3Cl)c(C#N)c(=O)n(C)c2C)c1 [Compound 6] |  |  |  |  |  |  | Test F disease control rating (Alternaria solani; 250 ppm): 0%; Test E disease control rating (Botrytis cinerea; 250 ppm): 0%; Test B disease control rating ([1]; 250 ppm): 0%; Test C disease control rating ([2]; 250 ppm): 89%; Test D disease control rating (Phakopsora pachyrhizi; 250 ppm): 0%; Test A disease control rating (Zymoseptoria tritici; 250 ppm): 0%
COc1cccc(-c2cn(C)c(=O)c(Cl)c2-c2ccc(F)cc2F)c1 [Compound 8] |  |  |  |  |  |  | Test F disease control rating (Alternaria solani; 250 ppm): 99%; Test E disease control rating (Botrytis cinerea; 250 ppm): 99%; Test B disease control rating ([1]; 250 ppm): 100%; Test C disease control rating ([2]; 250 ppm): 98%; Test D disease control rating (Phakopsora pachyrhizi; 250 ppm): 81%; Test A disease control rating (Zymoseptoria tritici; 250 ppm): 100%
CCCOc1ccc(Cl)c(-c2cn(C)c(=O)c(Cl)c2-c2ccc(F)cc2F)c1 [Compound 10] | 0 | 94 | 99 | 79 | 0 | 99 | 
Cn1cc(-c2ccccc2)c(-c2c(F)cccc2F)c(Cl)c1=O [Compound 11] | 94 | 97 | 80 | 0 | 0 | 99 | 
COc1cc(OC)cc(-c2cn(C)c(=O)c(C)c2-c2ccc(F)cc2Cl)c1 [Compound 12] | 99 | 92 | 99 | 40 | 83 | 100 | 
Cn1cc(-c2cc(F)ccc2Cl)c(-c2ccc(F)cc2Cl)c(C#N)c1=O [Compound 14] | 0 | 96 | 100 | 0 | 0 | 100 | 
Cn1cc(-c2ccccc2Cl)c(-c2ccc(F)cc2Cl)c(Cl)c1=O [Compound 15] | 0 | 88 | 100 | 69 | 0 | 100 | 
Cn1cc(-c2ccc(F)cc2Cl)c(-c2c(F)cccc2F)c(Cl)c1=O [Compound 16] | 31 | 96 | 97 | 0 | 68 | 100 | 
Cn1cc(-c2ccc(F)cc2)c(-c2c(F)cccc2F)c(Cl)c1=O [Compound 17] | 100 | 98 | 99 | 0 | 75 | 100 | 
Cc1c(-c2ccc(F)cc2Cl)c(-c2cc(F)ccc2Cl)cn(C)c1=O [Compound 18] | 99 | 98 | 100 | 94 | 96 | 100 | 
COc1cc(OC)cc(-c2cn(OC)c(=O)c(Cl)c2-c2ccc(F)cc2Cl)c1 [Compound 19, 3-chloro-4-(2-chloro-4-fluorophenyl)-5-(3,5-dimethoxyphenyl)-1-methoxy-2(1H)-pyridinone] |  |  |  |  |  |  | pest or weed control at 50 ppm (Alternaria solani; [3]): 0%; pest or weed control at 50 ppm (Botrytis cinerea; [4]): 98%; pest or weed control at 50 ppm [1, 5]: 99%; pest or weed control at 50 ppm [2, 6]: 0%; pest or weed control at 50 ppm (Phakopsora pachyrhizi; [7]): 11%; pest or weed control at 50 ppm (Zymoseptoria tritici; [8]): 58%
COc1cc(-c2cn(C)c(=O)c(Cl)c2-c2ccc(F)cc2F)ccc1Br [Compound 21] | 91 | 94 | 96 | 0 | 0 | 70 | 
COc1cc(OC)c(Cl)c(-c2cn(OC)c(=O)c(Cl)c2-c2ccc(F)cc2Cl)c1 [Compound 22, 3-chloro-4-(2-chloro-4-fluorophenyl)-5-(2-chloro-3,5-dimethoxyphenyl)-1-methoxy-2(1H)-pyridinone] |  |  |  |  |  |  | pest or weed control at 50 ppm (Alternaria solani; [3]): 99%; pest or weed control at 50 ppm (Botrytis cinerea; [4]): 98%; pest or weed control at 50 ppm [1, 5]: 100%; pest or weed control at 50 ppm [2, 6]: 76%; pest or weed control at 50 ppm (Phakopsora pachyrhizi; [7]): 97%; pest or weed control at 50 ppm (Zymoseptoria tritici; [8]): 99%
CCc1c(-c2ccc(F)cc2Cl)c(-c2cc(F)ccc2Cl)cn(C)c1=O [Compound 23] | 83 | 69 | 100 | 99 | 0 | 100 | 
COc1ccc(Cl)c(-c2cn(C)c(=O)c(Cl)c2-c2ccccc2Br)c1 [Compound 67] | 33 | 91 |  | 56 | 73 | 99 | 

Source: patent publication US20240215577A1, “FUNGICIDAL PYRIDONES” (FMC Corporation, priority 2021, published 2024)
